This is an account of results in ChEMBL document CHEMBL1155703, “Sequences and antimycoplasmic properties of longibrachins LGB II and LGB III, two novel 20-residue peptaibols from Trichoderma longibrachiatum” (J Nat Prod, 2001).

In brackets after ≈: the same amount, converted by molar mass. Square brackets hold non-standard residues; d marks the D form. Peptide text beside a SMILES is read from it. * marks the point of attachment. X2 = OC[C@H](Cc1c[nH]c2ccccc12)N*; Phe(ol) = N[C@H](CO)Cc1ccccc1; X1 = COC[C@H](Cc1ccccc1)N*; Aib = CC(C)(N)C(=O)O

Data set [1] can be described thus: Bilayer membrane permeabilization assessed as lipid to peptide ratio allowing 50% leakage of entrapped carboxyfluorescein from egg phosphatidylcholine-cholesterol liposomes at 1.1 uM at 20 mins by spectrofluorimetry. The format is physicochemical.
Data set [2] has as its system Spiroplasma apis. In words: Antimicrobial activity against Spiroplasma apis B31 after 2 hrs. As to conditions: for MIC: Spiroplasma apis, B31, 2 h. The data set is classed as functional.
The subject of data set [3] is Mycoplasmoides gallisepticum. Description: Antimicrobial activity against Mycoplasma gallisepticum S6 after 2 hrs. The data set is classed as functional. The note with it: for MIC: Mycoplasmoides gallisepticum, S6, 2 h.
Data set [4] relates to Spiroplasma floricola. Description: Antimicrobial activity against Spiroplasma floricola BNR1 after 2 hrs. The data set is classed as functional. As to conditions: for MIC: Spiroplasma floricola, BNR1, 2 h.
For data set [5], the system named is Spiroplasma citri. Description: Antimicrobial activity against Spiroplasma citri R8A2 after 2 hrs. The format is functional. The note with it: R8A2, 2 h.
For data set [6], the system named is Mycoplasma mycoides subsp. mycoides SC. In words: Antimicrobial activity against Mycoplasma mycoides subsp. mycoides SC KH3J after 2 hrs. The format is functional.
Data set [7] deals with Acholeplasma laidlawii. Description: Antimicrobial activity against Acholeplasma laidlawii PG-8A after 2 hrs. The format is functional. The note with it: for MIC: Acholeplasma laidlawii, PG-8A, 2 h.
The nature of data set [8]: Bilayer membrane permeabilization assessed as lipid to peptide ratio allowing 50% leakage of entrapped carboxyfluorescein from egg phosphatidylcholine-cholesterol liposomes at 0.21 uM at 20 mins by spectrofluorimetry. The data set is classed as physicochemical.
The nature of data set [9]: Bilayer membrane permeabilization assessed as lipid to peptide ratio allowing 50% leakage of entrapped carboxyfluorescein from egg phosphatidylcholine-cholesterol liposomes at 0.36 uM at 20 mins by spectrofluorimetry. The format is physicochemical.
The nature of data set [10]: Bilayer membrane permeabilization assessed as lipid to peptide ratio allowing 50% leakage of entrapped carboxyfluorescein from egg phosphatidylcholine-cholesterol liposomes at 0.18 uM at 20 mins by spectrofluorimetry. The data set is classed as physicochemical.
Data set [11] is described as follows: Bilayer membrane permeabilization assessed as lipid to peptide ratio allowing 50% leakage of entrapped carboxyfluorescein from egg phosphatidylcholine-cholesterol liposomes at 0.45 uM at 20 mins by spectrofluorimetry. The format is physicochemical.
Data set [12] can be described thus: Bilayer membrane permeabilization assessed as lipid to peptide ratio allowing 50% leakage of entrapped carboxyfluorescein from egg phosphatidylcholine-cholesterol liposomes at 0.98 uM at 20 mins by spectrofluorimetry. The format is physicochemical.

What is called MIC is the least concentration at which growth counts as inhibited. In the case of `CC[C@@](C)(NC(=O)C(C)(C)NC(=O)[C@@H](NC(=O)[C@@H]1CCCN1C(=O)C(C)(C)NC(=O)[C@H](CC(C)C)NC(=O)CNC(=O)C(C)(C)NC(=O)[C@@H](NC(=O)C(C)(C)NC(=O)[C@H](CCC(N)=O)NC(=O)[C@H](C)NC(=O)C(C)(C)NC(=O)[C@H](C)NC(=O)C(C)(C)NC(=O)[C@H](C)NC(=O)C(C)(C)NC(C)=O)C(C)C)C(C)C)C(=O)N[C@@H](CCC(=O)O)C(=O)N[C@@H](CCC(N)=O)C(=O)N[C@H](CO)Cc1ccccc1`, the Ratio in [1] is reported as 540. Moreover, the MLC in [2], in data set [3], in data set [4] and in data set [7] was 3.12 µM (≈ 6.09 µg/mL) in each case. Moreover, the minimum inhibitory concentration (MIC) is 12.5 µM (≈ 24.4 µg/mL) in [2]; 6.25 µM (≈ 12.2 µg/mL) in data set [3]; 12.5 µM (≈ 24.4 µg/mL) in data set [4]; 6.25 µM (≈ 12.2 µg/mL) in data set [5]; 6.25 µM (≈ 12.2 µg/mL) in [6]; 1.56 µM (≈ 3.05 µg/mL) in data set [7].

For the molecule `CC[C@@](C)(NC(=O)C(C)(C)NC(=O)[C@@H](NC(=O)[C@@H]1CCCN1C(=O)C(C)(C)NC(=O)[C@H](CC(C)C)NC(=O)CNC(=O)C(C)(C)NC(=O)[C@@H](NC(=O)C(C)(C)NC(=O)[C@H](CCC(N)=O)NC(=O)[C@H](C)NC(=O)C(C)(C)NC(=O)[C@H](C)NC(=O)C(C)(C)NC(=O)[C@H](C)NC(=O)C(C)(C)NC(C)=O)C(C)C)C(C)C)C(=O)N[C@@H](CCC(N)=O)C(=O)N[C@@H](CCC(N)=O)C(=O)N[C@@H](CO)Cc1ccccc1`, the Ratio in [8] is recorded as 2860.

Regarding `CC[C@@](C)(NC(=O)C(C)(C)NC(=O)[C@H](C)NC(=O)[C@H](CO)NC(=O)C(C)(C)NC(C)=O)C(=O)N[C@@H](CCC(N)=O)C(=O)NC(C)(C)C(=O)N[C@H](C(=O)NC(C)(C)C(=O)NCC(=O)N[C@@H](CC(C)C)C(=O)NC(C)(C)C(=O)N1CCC[C@H]1C(=O)N[C@@H](CC(C)C)C(=O)NC(C)(C)C(=O)NC(C)(C)C(=O)N[C@@H](CCC(N)=O)C(=O)N[C@H](CO)Cc1ccccc1)C(C)C`, the minimal inhibitory concentration (MIC) in data set [2] is 12.5 µM (≈ 22.3 µg/mL); in data set [3], 6.25 µM (≈ 11.1 µg/mL); in data set [4] it was 25 µM (≈ 44.6 µg/mL); in data set [5], 12.5 µM (≈ 22.3 µg/mL); in [6], 12.5 µM (≈ 22.3 µg/mL); in [7], 3.12 µM (≈ 5.56 µg/mL).

Consider `CC[C@@](C)(NC(=O)C(C)(C)NC(=O)[C@@H](NC(=O)[C@@H]1CCCN1C(=O)C(C)(C)NC(=O)[C@H](CC(C)C)NC(=O)CNC(=O)C(C)(C)NC(=O)[C@@H](NC(=O)C(C)(C)NC(=O)[C@H](CCC(N)=O)NC(=O)[C@H](C)NC(=O)C(C)(C)NC(=O)[C@H](C)NC(=O)C(C)(C)NC(=O)[C@H](C)NC(=O)C(C)(C)NC(C)=O)C(C)C)C(C)C)C(=O)N[C@@H](CCC(=O)O)C(=O)N[C@@H](CCC(N)=O)C(=O)N[C@H](COC)Cc1ccccc1`, for which the Ratio in data set [9] is reported as 2500.

For the molecule `CC[C@H](C)[C@H](NC(=O)C(C)(C)NC(=O)[C@@H](NC(=O)[C@@H]1CCCN1C(=O)C(C)(C)NC(=O)[C@H](CC(C)C)NC(=O)[C@H](CO)NC(=O)C(C)(C)NC(=O)C(C)(C)NC(=O)C(C)(C)NC(=O)[C@H](CCC(N)=O)NC(=O)C(C)(C)NC(=O)C(C)(C)NC(=O)[C@H](C)NC(=O)[C@H](C)NC(=O)C(C)(C)NC(C)=O)C(C)C)C(=O)N[C@@H](CCC(N)=O)C(=O)N[C@@H](CCC(N)=O)C(=O)N[C@H](CO)Cc1c[nH]c2ccccc12` (Ac-[Aib]AA[Aib][Aib]Q[Aib][Aib][Aib]SL[Aib]PV[Aib]IQQ-X2), the Ratio in [10] turned out to be 2220.

As for `COC[C@H](Cc1ccccc1)NC(=O)[C@H](CCC(N)=O)NC(=O)[C@H](CCC(=O)O)NC(=O)C(C)(C)NC(=O)C(C)(C)NC(=O)[C@@H](NC(=O)[C@@H]1CCCN1C(=O)C(C)(C)NC(=O)[C@H](CC(C)C)NC(=O)CNC(=O)C(C)(C)NC(=O)[C@@H](NC(=O)C(C)(C)NC(=O)[C@H](CCC(N)=O)NC(=O)[C@H](C)NC(=O)C(C)(C)NC(=O)[C@H](C)NC(=O)C(C)(C)NC(=O)[C@H](C)NC(=O)C(C)(C)NC(C)=O)C(C)C)C(C)C` (Ac-[Aib]A[Aib]A[Aib]AQ[Aib]V[Aib]GL[Aib]PV[Aib][Aib]EQ-X1), in [11], the Ratio is on record as 1335.

Regarding `CC(=O)NC(C)(C)C(=O)N[C@@H](C)C(=O)NC(C)(C)C(=O)N[C@@H](C)C(=O)NC(C)(C)C(=O)N[C@@H](C)C(=O)N[C@@H](CCC(N)=O)C(=O)NC(C)(C)C(=O)N[C@H](C(=O)NC(C)(C)C(=O)NCC(=O)N[C@@H](CC(C)C)C(=O)NC(C)(C)C(=O)N1CCC[C@H]1C(=O)N[C@H](C(=O)NC(C)(C)C(=O)NC(C)(C)C(=O)N[C@@H](CCC(=O)O)C(=O)N[C@@H](CCC(N)=O)C(=O)N[C@H](CO)Cc1ccccc1)C(C)C)C(C)C` (Ac-[Aib]A[Aib]A[Aib]AQ[Aib]V[Aib]GL[Aib]PV[Aib][Aib]EQ[Phe(ol)]), the MLC in data set [2], in data set [3], in data set [4] and in data set [7] was 3.12 µM (≈ 6.05 µg/mL) throughout. The MIC in [2] amounted to 12.5 µM (≈ 24.2 µg/mL); in data set [3], 6.25 µM (≈ 12.1 µg/mL); in [4], 12.5 µM (≈ 24.2 µg/mL); in data set [5], 6.25 µM (≈ 12.1 µg/mL); in data set [6], 12.5 µM (≈ 24.2 µg/mL); in data set [7], 1.56 µM (≈ 3.02 µg/mL).

On to `CC(=O)NC(C)(C)C(=O)N[C@@H](C)C(=O)NC(C)(C)C(=O)N[C@@H](C)C(=O)NC(C)(C)C(=O)N[C@@H](C)C(=O)N[C@@H](CCC(N)=O)C(=O)NC(C)(C)C(=O)N[C@H](C(=O)NC(C)(C)C(=O)NCC(=O)N[C@@H](CC(C)C)C(=O)NC(C)(C)C(=O)N1CCC[C@H]1C(=O)N[C@H](C(=O)NC(C)(C)C(=O)NC(C)(C)C(=O)N[C@@H](CCC(N)=O)C(=O)N[C@@H](CCC(N)=O)C(=O)N[C@H](CO)Cc1ccccc1)C(C)C)C(C)C` (Ac-[Aib]A[Aib]A[Aib]AQ[Aib]V[Aib]GL[Aib]PV[Aib][Aib]QQ[Phe(ol)]), for which, in data set [9], the Ratio came to 1667.

Regarding `CC(=O)NC(C)(C)C(=O)N[C@@H](C)C(=O)NC(C)(C)C(=O)N[C@@H](C)C(=O)NC(C)(C)C(=O)NC(C)(C)C(=O)N[C@@H](CCC(N)=O)C(=O)NC(C)(C)C(=O)N[C@H](C(=O)NC(C)(C)C(=O)NCC(=O)N[C@@H](CC(C)C)C(=O)NC(C)(C)C(=O)N1CCC[C@H]1C(=O)N[C@H](C(=O)NC(C)(C)C(=O)NC(C)(C)C(=O)N[C@@H](CCC(N)=O)C(=O)N[C@@H](CCC(N)=O)C(=O)N[C@H](CO)Cc1ccccc1)C(C)C)C(C)C` (Ac-[Aib]A[Aib]A[Aib][Aib]Q[Aib]V[Aib]GL[Aib]PV[Aib][Aib]QQ[Phe(ol)]), the Ratio in data set [12] is 1820.

`CC(=O)NC(C)(C)C(=O)N1CCC[C@H]1C(=O)NC(C)(C)C(=O)N[C@@H](C)C(=O)NC(C)(C)C(=O)N[C@@H](C)C(=O)N[C@@H](CCC(N)=O)C(=O)NC(C)(C)C(=O)N[C@H](C(=O)NC(C)(C)C(=O)NCC(=O)N[C@@H](CC(C)C)C(=O)NC(C)(C)C(=O)N1CCC[C@H]1C(=O)N[C@H](C(=O)NC(C)(C)C(=O)NC(C)(C)C(=O)N[C@@H](CCC(N)=O)C(=O)N[C@@H](CCC(N)=O)C(=O)N[C@H](CO)Cc1ccccc1)C(C)C)C(C)C` [ALAMETHICIN F50] (Ac-[Aib]P[Aib]A[Aib]AQ[Aib]V[Aib]GL[Aib]PV[Aib][Aib]QQ[Phe(ol)]): the minimal inhibitory concentration (MIC) was 6.25 µM (≈ 12.3 µg/mL) in data set [2]; 6.25 µM (≈ 12.3 µg/mL) in data set [3]; 6.25 µM (≈ 12.3 µg/mL) in data set [4]; 3.12 µM (≈ 6.13 µg/mL) in data set [5]; 12.5 µM (≈ 24.5 µg/mL) in data set [6]; 1.56 µM (≈ 3.06 µg/mL) in [7].
